Literature values, collected in PMC6203792, “An IL13Rα2 peptide exhibits therapeutic activity against metastatic colorectal cancer” (British Journal of Cancer, 2018).

Biological target: IL13Rα2
Conditions: read-out: affinity of IL-13/IL13Rα2 molecular recognition

## IL-13: Recombinant human IL-13
  Kd: ~0.5 nM
